Measured values as given in ChEMBL document CHEMBL2380205, “Discovery of a new class of natural product-inspired quinazolinone hybrid as potent antileishmanial agents” (J Med Chem, 2013).

Key:
Leishmania donovani [1] = experiment: Antileishmanial activity against amastigotes of Leishmania donovani MHOM/IN/60/Dd8 infected in golden hamster assessed as amastigote count at 50 mg/kg/day, ip administered for 5 days measured on day 7 of post last dose by Giemsa staining; assay type: functional; conditions: MHOM/IN/60/Dd8, ip, route intraperitoneal
[2] = (§1) Selectivity index, ratio of CC50 for mouse J774A1 cells to IC50 for amastigotes of Leishmania donovani MHOM/IN/60/Dd8 infected in mouse J-774A.1 cells; assay type: functional, J774.A1
[3] = Cytotoxicity against mouse J774A1 cells after 72 hrs by MTT assay; assay type: cell-based, J774.A1
[4] = Lipophilicity, log P of the compound; assay type: physicochemical; conditions: octanol/water
Leishmania donovani [5] = experiment: Antileishmanial activity against promastigotes of Leishmania donovani MHOM/IN/60/Dd8 after 72 hrs by luciferase reporter gene assay; assay type: functional, organism-based; conditions: MHOM/IN/60/Dd8, 72 h
Leishmania donovani [6] = experiment: Antileishmanial activity against amastigotes of Leishmania donovani MHOM/IN/60/Dd8 infected in mouse J-774A.1 cells after 72 hrs by luciferase reporter gene assay; assay type: functional, organism-based; conditions: MHOM/IN/60/Dd8, J774.A1, 72 h
[7] = Cytotoxicity against african green monkey Vero cells after 72 hrs by MTT assay; assay type: cell-based; conditions: chlorocebus sabaeus
Rattus norvegicus [8] = experiment: Volume of distribution at steady state in Sprague-Dawley rat at 5 mg/kg, iv; assay type: ADME, organism-based; design: dose 5 mg/kg, route intravenous; conditions: in vivo
[9] = Tmax in Sprague-Dawley rat at 10 […], po; assay type: ADME, organism-based; conditions: in vivo
Rattus norvegicus [10] = experiment: AUC (0 to t) in Sprague-Dawley rat at 10 mg/kg, po; assay type: ADME, organism-based, Plasma; design: dose 10 mg/kg, route oral; conditions: in vivo
Albumin = Albumin (Bos taurus, UniProt P02769); experiment: Binding affinity to bovine serum albumin by fluorescence spectrophotometry; assay type: ADME; conditions: cattle, isolated protein
Sequence of Albumin (P02769 whole entry): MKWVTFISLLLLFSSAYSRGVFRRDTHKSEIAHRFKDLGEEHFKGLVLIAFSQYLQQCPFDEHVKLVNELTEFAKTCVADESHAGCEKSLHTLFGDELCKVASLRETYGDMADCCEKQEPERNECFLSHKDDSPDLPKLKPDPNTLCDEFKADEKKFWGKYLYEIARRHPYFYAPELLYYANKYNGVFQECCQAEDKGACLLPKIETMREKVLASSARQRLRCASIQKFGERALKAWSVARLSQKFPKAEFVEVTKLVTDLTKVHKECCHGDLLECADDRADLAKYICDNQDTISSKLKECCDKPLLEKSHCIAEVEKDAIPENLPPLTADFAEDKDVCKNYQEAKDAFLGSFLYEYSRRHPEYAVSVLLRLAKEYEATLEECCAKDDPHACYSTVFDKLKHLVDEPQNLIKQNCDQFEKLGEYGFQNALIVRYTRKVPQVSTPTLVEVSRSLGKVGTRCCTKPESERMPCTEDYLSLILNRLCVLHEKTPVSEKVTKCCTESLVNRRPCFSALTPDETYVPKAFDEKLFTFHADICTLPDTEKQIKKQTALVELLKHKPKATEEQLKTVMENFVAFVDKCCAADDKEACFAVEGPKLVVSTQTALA

Rattus norvegicus [11] = experiment: Clearance in Sprague-Dawley rat at 10 mg/kg, po; assay type: ADME, organism-based; design: dose 10 mg/kg, route oral; conditions: in vivo
Rattus norvegicus [12] = experiment: Mean residence time in Sprague-Dawley rat at 5 mg/kg, iv; assay type: ADME, organism-based; design: dose 5 mg/kg, route intravenous; conditions: in vivo
[13] = Elimination half life in Sprague-Dawley rat at 10 mg/kg, po; assay type: ADME, organism-based; design: dose 10 mg/kg, route oral; conditions: in vivo, read-out: beta t1/2 (converted)
[14] = Cmax in Sprague-Dawley rat at 10 mg/kg, po; assay type: ADME, organism-based; design: dose 10 mg/kg, route oral; conditions: in vivo
Rattus norvegicus [15] = experiment: Elimination half life in Sprague-Dawley rat at 5 mg/kg, iv; assay type: ADME, organism-based; design: dose 5 mg/kg, route intravenous; conditions: in vivo
Rattus norvegicus [16] = experiment: Clearance in Sprague-Dawley rat at 5 mg/kg, iv; assay type: ADME, organism-based; design: dose 5 mg/kg, route intravenous; conditions: in vivo
[17] = Cmax in Sprague-Dawley rat at 5 mg/kg, iv; assay type: ADME, organism-based; design: dose 5 mg/kg, route intravenous; conditions: in vivo
Rattus norvegicus [18] = experiment: Volume of distribution at steady state in Sprague-Dawley rat at 10 mg/kg, po; assay type: ADME, organism-based; design: dose 10 mg/kg, route oral; conditions: in vivo
[19] = Oral bioavailability in Sprague-Dawley rat at 10 mg/kg; assay type: ADME, organism-based; conditions: in vivo
Leishmania [20] = experiment: Antileishmanial activity against amastigotes of Leishmania infected in mouse J-774A.1 cells assessed as decrease in […] production at IC50 after 24 hrs by ELISA relative to control; assay type: functional, J774.A1
Leishmania [21] = experiment: Antileishmanial activity against amastigotes of Leishmania infected mouse J774A1 cells assessed as induction of nitric oxide generation after 24 hrs by ELISA (reference value: 4.65 uM); assay type: functional, J774.A1
Leishmania [22] = experiment: Antileishmanial activity against amastigotes of Leishmania infected in mouse J-774A.1 cells assessed as increase in TNF-alpha production at IC50 after 24 hrs by ELISA relative to control; assay type: functional, J774.A1
Leishmania [23] = experiment: Antileishmanial activity against amastigotes of Leishmania infected in mouse J-774A.1 cells assessed as increase in IL-12 production at IC50 after 24 hrs by ELISA relative to control; assay type: functional, J774.A1
[24] = Mean residence time in Sprague-Dawley rat at 10 mg/kg, po; assay type: ADME, organism-based; design: dose 10 mg/kg, route oral; conditions: in vivo
Leishmania [25] = experiment: Antileishmanial activity against amastigotes of Leishmania infected in mouse J-774A.1 cells assessed as decrease in IL-10 production at IC50 after 24 hrs by ELISA relative to control; assay type: functional, J774.A1
[26] = Tmax in Sprague-Dawley rat at 5 mg/kg, iv; assay type: ADME, organism-based; design: dose 5 mg/kg, route intravenous; conditions: in vivo
[27] = AUC (0 to t) in Sprague-Dawley rat at 5 mg/kg, iv; assay type: ADME, organism-based; design: dose 5 mg/kg, route intravenous; conditions: plasma
Leishmania donovani [28] = experiment: Antileishmanial activity against amastigotes of Leishmania donovani MHOM/IN/60/Dd8 infected in golden hamster assessed as amastigote count at 30 mg/kg/day, po administered for 5 days measured on day 7 of post last dose by Giemsa staining; assay type: functional
Leishmania donovani [29] = experiment: Ratio of miltefosine IC50 to compound IC50 for amastigotes of Leishmania donovani MHOM/IN/60/Dd8 infected in mouse J-774A.1 cells; assay type: functional, J774.A1
[30] = AUC (0 to t) in Sprague-Dawley rat at 10 mg/kg, iv; assay type: ADME, organism-based; design: dose 10 mg/kg, route intravenous; conditions: plasma
[31] = Cmax in Sprague-Dawley rat at 10 mg/kg, iv; assay type: ADME, organism-based; design: dose 10 mg/kg, route intravenous; conditions: in vivo
[32] = Clearance in Sprague-Dawley rat at 10 mg/kg, iv; assay type: ADME, organism-based; design: dose 10 mg/kg, route intravenous; conditions: in vivo
[33] = Mean residence time in Sprague-Dawley rat at 10 mg/kg, iv; assay type: ADME, organism-based; design: dose 10 mg/kg, route intravenous; conditions: in vivo
[34] = Tmax in Sprague-Dawley rat at 10 […], iv; assay type: ADME, organism-based; conditions: in vivo
[35] = Volume of distribution at steady state in Sprague-Dawley rat at 10 mg/kg, iv; assay type: ADME, organism-based; design: dose 10 mg/kg, route intravenous; conditions: in vivo, read-out: Vdss
[36] = Elimination half life in Sprague-Dawley rat at 10 mg/kg, iv; assay type: ADME, organism-based; design: dose 10 mg/kg, route intravenous; conditions: in vivo, read-out: beta t1/2 (converted)
J774.A1 = experiment: as §1; assay type: functional
Leishmania donovani [37] = experiment: Antileishmanial activity against amastigotes of Leishmania donovani MHOM/IN/60/Dd8 infected in golden hamster assessed as amastigote count at 40 mg/kg/day, ip administered for 5 days measured on day 7 of post last dose by Giemsa staining; assay type: functional, organism-based

## CC(C)c1ccc(C(C(=O)NC2CCCCC2)N(C(=O)c2cccc(Cl)c2)c2ccc(C3(C)NC(=O)c4ccccc4N3)cc2)cc1 (stereo not drawn)
Leishmania donovani [1]
  inhibition in vivo at 50 mg/kg/day: 48%
[2]
  Ratio CC50/IC50: >84.38
[3]
  CC50 at 72 h: > 400 µM
[4]
  logP: 8.53
Leishmania donovani [5]
  IC50: > 40 µM
Leishmania donovani [6]
  IC50: 4.74 µM
[7]
  CC50 at 72 h: > 400 µM

## CC1(c2ccc(Nc3nc(N4CCCCC4)nc(N4CCCCC4)n3)cc2)NC(=O)c2ccccc2N1 (stereo not drawn)
Rattus norvegicus [8]
  Vdss: 5.44 L/kg
[9]
  Tmax: 2 h
Leishmania donovani [1]
  inhibition in vivo at 50 mg/kg/day: 73.2%
Rattus norvegicus [10]
  AUCt: 0.327 µg·h/mL
Albumin
  KSV: 10 ×10⁴ L/mol
  Kq: 10 ×10¹² L/mol/s
Rattus norvegicus [11]
  CL: 1.79 L/h/kg
Rattus norvegicus [12]
  MRT: 3.07 h
[2]
  Ratio CC50/IC50: >101.26
[13]
  half-life: 1.26 h
[14]
  Cmax: 0.108 µg/mL
Rattus norvegicus [15]
  beta t1/2: 0.84 h
Rattus norvegicus [16]
  CL: 1.77 L/h/kg
[17]
  Cmax: 1.83 µg/mL
Rattus norvegicus [18]
  Vdss: 5.39 L/kg
[19]
  bioavailability: 5.75%
Leishmania [20]
  fold change (FC): 2.8
[3]
  CC50 at 72 h: > 400 µM
Leishmania [21]
  Activity: 15.72 µM
[4]
  logP: 6.23
Leishmania donovani [5]
  IC50: 7.05 µM
Leishmania [22]
  fold change (FC): >9
Leishmania donovani [6]
  IC50: 3.95 µM
Leishmania [23]
  fold change (FC): 6
[24]
  MRT: 3.01 h
Leishmania [25]
  fold change (FC): >3
[26]
  Tmax: 4.8 min
[7]
  CC50 at 72 h: > 400 µM
[27]
  AUC(0-t): 2.84 µg·h/mL

## CCCCCCCCCCCCCCCCOP(=O)([O-])OCC[N+](C)(C)C [MILTEFOSINE]
[2]
  Ratio CC50/IC50: 1.48
Leishmania donovani [28]
  inhibition in vivo at 30 mg/kg/day: 98.1%
[3]
  CC50 at 72 h: 12.4 µM
[4]
  logP: -0.21
Leishmania donovani [5]
  IC50: 1.05 µM
Leishmania donovani [6]
  IC50: 8.4 µM

## CC1(c2ccc(Nc3nc(NCc4ccccc4)nc(NCc4ccccc4)n3)cc2)NC(=O)c2ccccc2N1 (stereo not drawn)
Leishmania donovani [1]
  inhibition in vivo at 50 mg/kg/day: 44.8%
[2]
  Ratio CC50/IC50: >59.52
[3]
  CC50 at 72 h: > 400 µM
[4]
  logP: 6.49
Leishmania donovani [5]
  IC50: 6.38 µM
Leishmania donovani [6]
  IC50: 6.72 µM
[7]
  CC50 at 72 h: 359 µM

## CC(C)c1ccc(C(Nc2ccc(C3(C)NC(=O)c4ccccc4N3)cc2)c2nnnn2C(C)(C)C)cc1 (stereo not drawn)
Leishmania donovani [1]
  inhibition in vivo at 50 mg/kg/day: 54%
[2]
  Ratio CC50/IC50: >51.54
[3]
  CC50 at 72 h: > 400 µM
[4]
  logP: 6.03
Leishmania donovani [5]
  IC50: 4.02 µM
Leishmania donovani [6]
  IC50: 7.76 µM
[7]
  CC50 at 72 h: > 400 µM

## CN1CCN(c2ccc(-c3cc(-c4ccc(C5NC(=O)c6ccccc6N5)cc4)nc(N)n3)cc2)CC1 (stereo not drawn)
[2]
  Ratio CC50/IC50: 15.16
[3]
  CC50 at 72 h: 10.2 µM
Leishmania donovani [5]
  IC50: 1.75 µM
Leishmania donovani [6]
  IC50: 0.65 µM
Leishmania donovani [29]
  Ratio IC50: 13
[7]
  CC50 at 72 h: 8.32 µM

## CC1(c2ccc(Nc3nc(N4CCc5ccccc5C4)nc(N4CCc5ccccc5C4)n3)cc2)NC(=O)c2ccccc2N1 (stereo not drawn)
[30]
  AUC(0-t): 24.3 µg·h/mL
Leishmania donovani [1]
  inhibition in vivo at 50 mg/kg/day: 80.9%
[31]
  Cmax: 63.3 µg/mL
Rattus norvegicus [10]
  AUCt: 0.716 µg·h/mL
[32]
  clearance: 0.33 L/h/kg
Albumin
  KSV: 6 ×10⁴ L/mol
  Kq: 6 ×10¹² L/mol/s
Rattus norvegicus [11]
  CL: 0.36 L/h/kg
[2]
  Ratio CC50/IC50: >91.11
[33]
  MRT: 5.88 h
[34]
  Tmax: 4.8 min
[35]
  Vd: 1.95 L/kg
[36]
  half-life: 12.8 h
[19]
  bioavailability: 2.94%
Leishmania [20]
  fold change (FC): >3
[3]
  CC50 at 72 h: > 400 µM
Leishmania [21]
  Activity: 22.58 µM
[4]
  logP: 7.19
Leishmania donovani [5]
  IC50: > 40 µM
Leishmania [22]
  fold change (FC): 11
Leishmania donovani [6]
  IC50: 4.39 µM
Leishmania [23]
  fold change (FC): >8
[24]
  MRT: 8.44 h
Leishmania [25]
  fold change (FC): 5
[7]
  CC50 at 72 h: > 400 µM

## Nc1nc(-c2ccc(Cl)cc2)cc(-c2ccc(C3NC(=O)c4ccccc4N3)cc2)n1 (stereo not drawn)
Leishmania donovani [1]
  inhibition in vivo at 50 mg/kg/day: 35.8%
[2]
  Ratio CC50/IC50: 43.46
[3]
  CC50 at 72 h: 82.2 µM
[4]
  logP: 4.49
Leishmania donovani [5]
  IC50: 3.07 µM
Leishmania donovani [6]
  IC50: 1.89 µM
[7]
  CC50 at 72 h: 323 µM

## CCCCCNc1nc(NCCCCC)nc(Nc2ccc(C3(C)NC(=O)c4ccccc4N3)cc2)n1 (stereo not drawn)
Leishmania donovani [1]
  inhibition in vivo at 50 mg/kg/day: 43%
[2]
  Ratio CC50/IC50: >165.29
[3]
  CC50 at 72 h: > 400 µM
[4]
  logP: 7.57
Leishmania donovani [5]
  IC50: 7.46 µM
Leishmania donovani [6]
  IC50: 2.42 µM
[7]
  CC50 at 72 h: > 400 µM

## Sodium stibogluconate
J774.A1
  Ratio CC50/IC50: > 8.57
Leishmania donovani [37]
  inhibition: 86.9%
